From patent publication US20040106148A1, “Polypeptides” (priority 2000, published 2004)

Tests used:
[1] = target: human TAPP1, full length, mutant R28L (Arg28 to Leu), GST fusion (Homo sapiens, UniProt Q9HB21, R28L); assay: Protein-lipid overlay; assay type: binding; details: FIG. 4B
Experimental: (§1) FIG. 4. Comparison of the phosphoinositide binding properties of the N-terminal and C-terminal PH domains of TAPP1 and TAPP2. The ability of wild type and mutant forms of full length (FL) and isolated N-terminal (NT) and C-terminal (CT) PH domains of TAPP1 and TAPP2 GST-fusion proteins to interact with phosphoinositides were analysed using a protein-lipid overlay. Serial dilutions of the indicated phosphoinositides (100 pmol, 50 pmol, 25 pmol, 12.5 pmol, 6.3 pmol, 3.1 pmol and 1.6 pmol) were spotted onto a nitrocellulose membrane which was then incubated with the indicated purified GST fusion proteins. The membranes were washed and the GST-fusion proteins bound to the membrane by virtue of their interactions with lipid were detected using a GST antibody. A representative experiment of three is shown. The isolated N-terminal PH domain of human TAPP1 comprises residues 1 to 147, the isolated C-terminal PH domain of human TAPP1 comprises residues 95 to 404, the isolated N-terminal PH domain of mouse TAPP2 comprises residues 1 to 131 and the isolated C-terminal PH of mouse TAPP2 comprises residues 174 to 425.
(§2) Protein-Lipid overlay. To assess the phosphoinositide binding properties of each PH domain, a protein-lipid overlay assay was performed using the GST fusion proteins as described previously. Briefly, 1 μl of lipid solution containing 1-100 pmol of phospholipids dissolved in a mixture of choroform:methanol:water (1:2:0.8) was spotted onto Hybond-C extra membrane and allowed to dry at room temperature for 1 h. The membrane was blocked in 3% (by mass) fatty acid-free BSA in TBST (50 mM Tris/HCl pH 7.5, 150 mM NaCl and 0.1% Tween-20 (by vol) for lh. The membrane was then incubated overnight at 4° C. with gentle agitation in the same solution containing 0.2 μg/ml of the indicated GST fusion protein. The membranes were washed 6 times over 30 min in TBST and then incubated for 1 h with 1/1000 dilution of anti-GST monoclonal antibody (Sigma). The membranes were washed as before, then incubated for 1 h with 1/5000 dilution of anti-mouse-HRP conjugate (Pierce). Finally, the membranes were washed 12 times over 1 h in TBST and the GST-fusion protein bound to the membrane by virtue of its interaction with phospholipid was detected by enhanced chemiluminescence.

[2] = target: human TAPP1, full length, wild type, GST fusion (Homo sapiens, UniProt Q9HB21); assay: Protein-lipid overlay; assay type: binding; details: FIG. 4A and Table 2
Experimental: as §1, §2

[3] = target: human TAPP1, full length, mutant R212L (Arg212 to Leu), GST fusion (Homo sapiens, UniProt Q9HB21, R211L); assay: Protein-lipid overlay; assay type: binding; details: FIG. 4B
Experimental: as §1, §2

[4] = target: T1, mouse TAPP2 C-terminal PH domain (residues 174 to 425), GST fusion (Mus musculus, UniProt Q9ERS5); assay: Surface plasmon resonance (BIACore), GST fusion binding to phosphoinositide in supported lipid monolayer; details: read-out: apparent Kd
T1 construct: made in house; host or cells: human embryonic kidney 293 cells (pEBG-2T)
Excerpt: Cloning of PH domains and preparation of expression constructs. All the human and mouse EST's were obtained from the I.M.A.G.E. Consortium and sequenced. The plant EST (accession number T04439) encoding a full length clone of AtPH1 was obtained from the Arabidopsis Biological Research. Centre (Ohio University). The sequence of each EST was verified and the full length PH domain of each EST was amplified by PCR using the Hi-fidelity PCR system with primers designed to incorporate a Kozak site, an initiating ATG codon followed by a myc epitope tag and a stop codon after the PH domain. […]
Kinetic analyses of the interactions between the GST PH domain fusions and the polyphosphoinositides were made using surface plasmon resonance based procedures as described previously, with the following modifications. […] Data were analysed using the bimolecular interaction model and the global fitting feature of the BIAevaluation 3 software for several sensorgrams at different protein concentrations. […] The relative binding affinities of each protein relative to the binding of full length GST-TAPP1 to PtdIns(3,4)P2 were also calculated.

Sequence of human TAPP1, full length, mutant R212L (Arg212 to Leu), GST fusion (Q9HB21 whole entry R211L, the tested form may be a part): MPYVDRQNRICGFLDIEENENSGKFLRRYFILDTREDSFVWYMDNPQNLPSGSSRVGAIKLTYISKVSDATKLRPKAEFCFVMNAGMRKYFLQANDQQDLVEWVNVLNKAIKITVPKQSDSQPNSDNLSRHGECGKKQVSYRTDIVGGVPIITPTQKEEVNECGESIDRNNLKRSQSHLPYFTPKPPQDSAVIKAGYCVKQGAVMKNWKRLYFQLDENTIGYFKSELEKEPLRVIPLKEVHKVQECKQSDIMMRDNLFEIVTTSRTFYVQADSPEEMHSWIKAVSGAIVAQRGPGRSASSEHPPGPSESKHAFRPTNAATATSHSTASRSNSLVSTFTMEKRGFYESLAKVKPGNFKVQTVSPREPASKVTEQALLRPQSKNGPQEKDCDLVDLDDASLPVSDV
Sequence of human TAPP1, full length, mutant R28L (Arg28 to Leu), GST fusion (Q9HB21 whole entry R28L, the tested form may be a part): as the sequence (Q9HB21 whole entry R211L, the tested form may be a part) above, with R28L, L211R counted along it
T1 sequence (Q9ERS5 174-425): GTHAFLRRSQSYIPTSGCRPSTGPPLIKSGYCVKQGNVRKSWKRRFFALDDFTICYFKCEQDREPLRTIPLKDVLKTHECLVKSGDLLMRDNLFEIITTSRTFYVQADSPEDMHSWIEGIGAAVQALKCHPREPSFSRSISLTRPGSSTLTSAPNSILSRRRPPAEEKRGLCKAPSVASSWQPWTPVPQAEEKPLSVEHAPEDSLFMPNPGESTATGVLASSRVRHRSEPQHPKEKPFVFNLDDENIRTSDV
Sequence of human TAPP1, full length, wild type, GST fusion (Q9HB21 whole entry, the tested form may be a part): as the sequence (Q9HB21 whole entry R211L, the tested form may be a part) above, with L211R counted along it

effect of mutation on interaction [1]: did not affect the interaction
phosphoinositide binding [2]: interacted specifically
effect of mutation on interaction [3]: abolished the interaction
Kd [4]: 30 nM
Compound: CCCCCCCCCCCCCCCC(=O)OC[C@H](COP(=O)(O)O[C@H]1[C@H](O)[C@@H](O)[C@H](OP(=O)(O)O)[C@@H](OP(=O)(O)O)[C@H]1O)OC(=O)CCCCCCCCCCCCCCC [PtdIns(3,4)P2]
